Read-outs that look alike come from different tables or passages of the source.
Assays:
Type in all cases: biochemical
PI3Kα = molecular target: T1, PI3Kα (Homo sapiens, UniProt P42336); assay: Ki for PI3Kα (Promega ADP-Glo Lipid Kinase System)
T1 construct: purchased Promega V1721
Excerpt: The Promega V1721 ADP-Glo Lipid Kinase System was used as per the Promega technical manual. The analysis was done in triplicate on three 96-well plates. The plates were read and the data were processed with GraphPad Prism 7.0.

p110beta = p110beta (Homo sapiens, UniProt P42338); assay: PI3K kinase assay (ADP-Glo), p110beta; details: final ATP 25 μM
Sequence of p110beta (P42338 whole entry): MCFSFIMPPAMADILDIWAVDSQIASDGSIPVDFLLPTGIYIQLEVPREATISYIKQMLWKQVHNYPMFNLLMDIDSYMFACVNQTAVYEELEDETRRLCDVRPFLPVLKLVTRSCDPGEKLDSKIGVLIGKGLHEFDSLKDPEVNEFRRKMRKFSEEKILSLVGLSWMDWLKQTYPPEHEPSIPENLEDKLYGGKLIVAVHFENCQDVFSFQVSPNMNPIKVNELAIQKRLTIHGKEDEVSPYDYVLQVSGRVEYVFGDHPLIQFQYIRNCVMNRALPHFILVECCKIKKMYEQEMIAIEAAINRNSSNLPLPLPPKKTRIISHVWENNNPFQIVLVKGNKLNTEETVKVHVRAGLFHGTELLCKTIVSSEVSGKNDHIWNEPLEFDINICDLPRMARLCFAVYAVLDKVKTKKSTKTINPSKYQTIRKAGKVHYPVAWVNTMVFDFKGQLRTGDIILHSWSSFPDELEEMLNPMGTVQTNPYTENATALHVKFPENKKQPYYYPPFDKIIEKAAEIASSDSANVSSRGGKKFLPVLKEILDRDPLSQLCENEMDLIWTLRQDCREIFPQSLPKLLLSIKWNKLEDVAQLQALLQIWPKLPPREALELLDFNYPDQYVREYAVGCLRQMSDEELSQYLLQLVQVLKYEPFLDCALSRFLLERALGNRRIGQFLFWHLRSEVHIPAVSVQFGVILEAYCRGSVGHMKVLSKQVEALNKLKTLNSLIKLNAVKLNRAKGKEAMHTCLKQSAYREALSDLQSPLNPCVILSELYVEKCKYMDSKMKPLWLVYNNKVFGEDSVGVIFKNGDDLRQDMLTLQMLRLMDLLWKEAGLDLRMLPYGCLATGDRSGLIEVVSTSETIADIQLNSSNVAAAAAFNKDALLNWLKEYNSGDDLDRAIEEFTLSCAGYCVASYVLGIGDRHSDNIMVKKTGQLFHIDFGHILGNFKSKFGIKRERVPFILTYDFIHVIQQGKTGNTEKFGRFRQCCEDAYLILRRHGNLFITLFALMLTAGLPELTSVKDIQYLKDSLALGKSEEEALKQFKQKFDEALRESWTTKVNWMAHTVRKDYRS
Sequence of p110beta (P27986 whole entry partner): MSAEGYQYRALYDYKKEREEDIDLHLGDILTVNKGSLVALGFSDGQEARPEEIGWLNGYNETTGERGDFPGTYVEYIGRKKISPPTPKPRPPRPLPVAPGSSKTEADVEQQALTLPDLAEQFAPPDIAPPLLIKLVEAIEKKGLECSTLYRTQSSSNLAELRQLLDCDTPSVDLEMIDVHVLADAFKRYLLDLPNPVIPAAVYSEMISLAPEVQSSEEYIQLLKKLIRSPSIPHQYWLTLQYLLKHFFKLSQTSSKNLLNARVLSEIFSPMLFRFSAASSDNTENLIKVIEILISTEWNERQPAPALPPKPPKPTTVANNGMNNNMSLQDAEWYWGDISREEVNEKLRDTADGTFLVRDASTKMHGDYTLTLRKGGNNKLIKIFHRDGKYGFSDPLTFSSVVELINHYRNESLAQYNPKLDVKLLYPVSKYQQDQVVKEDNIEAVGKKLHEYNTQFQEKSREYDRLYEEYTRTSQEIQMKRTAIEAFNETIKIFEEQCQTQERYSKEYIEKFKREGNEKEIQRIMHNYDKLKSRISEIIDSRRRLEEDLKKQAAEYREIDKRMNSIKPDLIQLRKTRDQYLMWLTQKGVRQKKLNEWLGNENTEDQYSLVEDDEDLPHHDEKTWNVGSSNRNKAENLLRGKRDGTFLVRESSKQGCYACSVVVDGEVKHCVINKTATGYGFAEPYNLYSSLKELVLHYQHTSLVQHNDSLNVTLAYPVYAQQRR
Method: (§1) Summary of PI3K Kinase Assay
(§2) 1. Prepare 1.25× enzyme/substrate: mix equal volume of 2.5× enzyme (in 2.5× reaction buffer) and 2.5× substrate (final 0.05 mg/ml) (in 2.5× lipid dilution buffer);
(§3) 2. Add 4 μl of 1.25× enzyme/substrate mixture to 384-well low volume white plate;
(§4) 3. Add 0.1 μl of increasing concentrations of compound diluted in DMSO;
(§5) 4. Incubate at r.t. for 30 min;
(§6) 5. Dispense 1 μl of 250 μM ATP diluted in ddH2O. The final ATP was 25 μM;
(§7) 6. Incubate at r.t. for 1 h;
(§8) 7. Add 5 μl of ADP-Glo with 10 mM MgCl2;
(§9) 8. Incubate at r.t. for 40 min;
(§10) 9. Add 10 μl of kinase detection buffer;
(§11) 10. Incubated at r.t. for 30 min; and
(§12) 11. Read luminescence signal using Envision multilabel plate reader.
(§13) The effect of compound on kinase activity is expressed as % of control and calculated as the following equation: % of Control=(Lum compound−Lum blank)/(Lum vehicle control−Lum blank)×100 • * blank is the substrate only without enzyme, which is the background signal control.
(§14) The experiment was repeated twice on different days at triplicates per sample.

p120gamma = p120gamma (Homo sapiens, UniProt P48736); assay: PI3K kinase assay (ADP-Glo), p120gamma; details: final ATP 25 μM
Method: as §1, §2, §3, §4, §5, §6, §7, §8, §9, §10, §11, §12, §13, §14

p110alpha = p110alpha (Homo sapiens, UniProt P42336); assay: PI3K kinase assay (ADP-Glo), p110alpha; details: final ATP 25 μM
Sequence of p110alpha (P42336 whole entry): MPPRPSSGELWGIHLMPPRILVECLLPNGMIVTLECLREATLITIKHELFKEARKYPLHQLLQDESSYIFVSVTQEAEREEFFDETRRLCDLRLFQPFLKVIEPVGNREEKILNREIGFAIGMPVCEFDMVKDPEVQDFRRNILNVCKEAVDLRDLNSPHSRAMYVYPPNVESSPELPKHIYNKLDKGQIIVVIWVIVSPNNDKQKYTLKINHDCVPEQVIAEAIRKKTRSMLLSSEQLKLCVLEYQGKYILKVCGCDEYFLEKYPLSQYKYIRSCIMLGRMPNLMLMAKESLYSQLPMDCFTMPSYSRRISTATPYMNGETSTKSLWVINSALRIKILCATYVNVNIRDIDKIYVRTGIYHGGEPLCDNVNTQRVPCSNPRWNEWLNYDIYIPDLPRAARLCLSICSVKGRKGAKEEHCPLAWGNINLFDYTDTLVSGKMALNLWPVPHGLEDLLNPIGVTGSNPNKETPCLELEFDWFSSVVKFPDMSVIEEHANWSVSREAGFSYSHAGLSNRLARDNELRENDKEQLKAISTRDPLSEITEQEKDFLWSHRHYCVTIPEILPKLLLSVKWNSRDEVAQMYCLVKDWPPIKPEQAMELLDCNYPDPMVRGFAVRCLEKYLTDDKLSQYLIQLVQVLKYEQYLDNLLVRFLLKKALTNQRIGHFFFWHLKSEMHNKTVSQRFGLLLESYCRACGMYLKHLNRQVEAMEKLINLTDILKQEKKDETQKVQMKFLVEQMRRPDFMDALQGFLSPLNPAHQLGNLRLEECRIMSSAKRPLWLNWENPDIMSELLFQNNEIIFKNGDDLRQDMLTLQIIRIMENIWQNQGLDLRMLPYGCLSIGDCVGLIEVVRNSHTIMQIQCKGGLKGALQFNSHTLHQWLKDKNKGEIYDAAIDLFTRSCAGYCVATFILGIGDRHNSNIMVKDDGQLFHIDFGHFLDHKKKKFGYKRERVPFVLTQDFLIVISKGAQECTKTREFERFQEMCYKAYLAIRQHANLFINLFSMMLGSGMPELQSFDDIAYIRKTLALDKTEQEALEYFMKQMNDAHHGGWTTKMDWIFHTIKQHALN
Sequence of p110alpha (P27986 whole entry partner): as the sequence (P27986 whole entry partner) above
Method: as §1
Enzyme optimization: After optimization, the following concentrations of Enzyme are used to compound testing: P110alpha 1 μg/ml,
as §2, §3, §4, §5, §6, §7, §8, §9, §10, §11, §12, §13, §14

p110delta = p110delta (Homo sapiens, UniProt O00329); assay: PI3K kinase assay (ADP-Glo), p110delta; details: final ATP 25 μM
Sequence of p110delta (O00329 whole entry): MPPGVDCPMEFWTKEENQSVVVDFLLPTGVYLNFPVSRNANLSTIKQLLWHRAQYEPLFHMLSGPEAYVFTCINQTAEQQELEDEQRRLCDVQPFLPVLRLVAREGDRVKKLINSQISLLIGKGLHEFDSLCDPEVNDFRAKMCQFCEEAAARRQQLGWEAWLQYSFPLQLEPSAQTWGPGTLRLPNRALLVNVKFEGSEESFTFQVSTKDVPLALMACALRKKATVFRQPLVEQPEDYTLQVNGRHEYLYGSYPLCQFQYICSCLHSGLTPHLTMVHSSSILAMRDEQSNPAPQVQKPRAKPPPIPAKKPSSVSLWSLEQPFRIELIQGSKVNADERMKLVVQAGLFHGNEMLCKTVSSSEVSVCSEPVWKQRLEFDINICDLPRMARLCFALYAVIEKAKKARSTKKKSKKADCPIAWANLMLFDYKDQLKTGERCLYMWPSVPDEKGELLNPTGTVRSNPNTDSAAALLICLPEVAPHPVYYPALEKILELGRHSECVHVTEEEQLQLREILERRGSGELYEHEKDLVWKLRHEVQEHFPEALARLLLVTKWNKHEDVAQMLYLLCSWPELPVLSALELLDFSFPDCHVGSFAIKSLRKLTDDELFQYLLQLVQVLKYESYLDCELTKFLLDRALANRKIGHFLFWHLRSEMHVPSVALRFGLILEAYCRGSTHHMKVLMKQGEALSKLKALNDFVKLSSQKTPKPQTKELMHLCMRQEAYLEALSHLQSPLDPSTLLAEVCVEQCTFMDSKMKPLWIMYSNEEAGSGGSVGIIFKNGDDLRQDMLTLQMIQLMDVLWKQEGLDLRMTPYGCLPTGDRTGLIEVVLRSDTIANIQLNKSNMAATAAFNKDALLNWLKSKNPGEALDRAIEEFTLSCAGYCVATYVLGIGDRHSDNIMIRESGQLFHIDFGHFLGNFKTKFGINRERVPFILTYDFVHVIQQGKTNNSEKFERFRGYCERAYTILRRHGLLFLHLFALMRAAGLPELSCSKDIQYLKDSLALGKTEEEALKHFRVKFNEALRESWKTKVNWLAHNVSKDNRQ
Sequence of p110delta (P27986 whole entry partner): as the sequence (P27986 whole entry partner) above
Method: as §1, §2, §3, §4, §5, §6, §7, §8, §9, §10, §11, §12, §13, §14

[1] = Exp. 1, read-out: IC50 p110beta Exp. 1
[2] = Exp. 2, read-out: IC50 p110beta Exp. 2
[3] = Exp. 1, read-out: IC50 p120gamma Exp. 1
[4] = Exp. 2, read-out: IC50 p120gamma Exp. 2
[5] = Exp. 1, read-out: IC50 p110alpha Exp. 1
[6] = Exp. 2, read-out: IC50 p110alpha Exp. 2
[7] = Exp. 1, read-out: IC50 p110delta Exp. 1
[8] = Exp. 2, read-out: IC50 p110delta Exp. 2

T1 sequence (P42336 whole entry): as the sequence (P42336 whole entry) above
T1 sequence (P27986 whole entry partner): as the sequence (P27986 whole entry partner) above

| Ki (PI3Kα) | IC50 (p110beta; [1]) | IC50 (p110beta; [2]) | IC50 (p120gamma; [3]) | IC50 (p120gamma; [4]) | IC50 (p110alpha; [5]) | IC50 (p110alpha; [6]) | IC50 (p110delta; [7]) | IC50 (p110delta; [8]) | Structure (SMILES) |
| --- | --- | --- | --- | --- | --- | --- | --- | --- | --- |
| 43 nM |  |  |  |  |  |  |  |  | CCc1nc(-c2cnc3ccc(-c4cncc(NS(=O)(=O)c5ccccc5)c4)cn23)no1 |
|  | 244 nM | 242 nM | 1920 nM | 2140 nM | 351 nM | 349 nM | 308 nM | 203 nM | Nc1ccc(-c2cccc3c(=O)cc(N4CCOCC4)oc23)cc1 [PI 828, reference compound] |
|  | 167 nM | 187 nM | 14.9 nM | 27.7 nM | 11.7 nM | 12.7 nM | 33.5 nM | 27.7 nM | COc1ncc(-c2cnc3ccc(-c4cncc(NS(=O)(=O)c5ccccc5)c4)cn23)cn1 [TK2-67p3-36 (6b), N-(5-(3-(2-methoxypyrimidin-5-yl)imidazo[1,2-a]pyridin-6-yl)pyridin-3-yl)benzenesulfonamide] |
|  | 190 nM | 184 nM | 18.6 nM | 34.2 nM | 20.9 nM | 33.7 nM | 33.5 nM | 34.2 nM | CN(C)c1ncc(-c2cnc3ccc(-c4cncc(NS(=O)(=O)c5ccccc5)c4)cn23)cn1 [TK2-71pZD2-86 (6a), N-(5-(3-(2-(dimethylamino)pyrimidin-5-yl)imidazo[1,2-a]pyridin-6-yl)pyridin-3-yl)benzenesulfonamide] |
|  | 27.6 nM | 44.9 nM | 7.5 nM | 8.5 nM | 8.9 nM | 11.5 nM | 10.8 nM | 8.5 nM | O=S(=O)(Nc1cncc(-c2ccc3ncc(-c4ncccn4)n3c2)c1)c1ccccc1 [TK2-94p3-47 (6d), N-(5-(3-(pyrimidin-2-yl)imidazo[1,2-a]pyridin-6-yl)pyridin-3-yl)benzenesulfonamide] |
|  | 419 nM | 479 nM | 50.2 nM | 31 nM | 51 nM | 61.3 nM | 34.1 nM | 31 nM | O=S(=O)(Nc1cncc(-c2ccc3ncc(-c4cnc5ccnn5c4)n3c2)c1)c1ccccc1 [TK2-130p3-37 (6c), N-(5-(3-(pyrazolo[1,5-a]pyrimidin-6-yl)imidazo[1,2-a]pyridin-6-yl)pyridin-3-yl)benzenesulfonamide] |
| 244 nM |  |  |  |  |  |  |  |  | CN(C)c1ncc(-c2cnc3ccc(-c4cncc(NS(=O)(=O)c5ccccc5)c4)cn23)cn1 [drawing 16] |
| 70 nM |  |  |  |  |  |  |  |  | COc1ncc(-c2cnc3ccc(-c4cncc(NS(=O)(=O)c5ccccc5)c4)cn23)cn1 [drawing 17] |
| 329 nM |  |  |  |  |  |  |  |  | O=S(=O)(Nc1cncc(-c2ccc3ncc(-c4cnc5ccnn5c4)n3c2)c1)c1ccccc1 [drawing 18] |
| 100 nM |  |  |  |  |  |  |  |  | O=S(=O)(Nc1cncc(-c2ccc3ncc(-c4ncccn4)n3c2)c1)c1ccccc1 [drawing 19] |
